This note sets out measurements from PubChem BioAssay (NCI).

The structures appear in SMILES notation. “And” between values parts separate entries of the source, which are not always exact repeats. Identical values can stand only once.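 Growth conditions: 96-well plates. Treatment: test compound, 48 hours, 5 concentrations. Analysis: linear interpolation between bracketing concentrations; unreached endpoints set to highest concentration. Abbreviation: GI50, concentration required for 50% inhibition of growth. TGI is the concentration that stops growth completely.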

Experiment in all cases: NCI tumour cell line growth inhibition, 48 h
For test [1], the system named is XF 498 CNS.
Test [2] has as its system DMS 273 small cell lung.
The test system of test [3] is SNB-78 CNS.
The subject of test [4] is DLD-1 colon.
Test [5] has as its system DMS 114 small cell lung.
For test [6], the system named is RXF-631 renal.
Test [7] relates to M19-MEL melanoma.
For test [8], the system named is HOP-18 NSCLC.
For test [9], the system named is LXFL 529 NSCLC.
Test [10] deals with P388/ADR leukemia.
Test [11] relates to P388 leukemia.
The test system of test [12] is SN12K1 renal.

As to `c1ccc(SC(Sc2ccccc2)=C2CCC2)cc1`, the TGI in test [1], in test [2], in [3], in test [4], in test [5] and in [6] was greater than 100 µM each time. Further, in test [7], the TGI is greater than 100 µM.
Turning to `CCC[CH2][Sn](=[O])[CH2]CCC`, the GI50 in test [8], in test [2], in [3], in test [4], in test [5] and in [9] was greater than 50 µM in each case. Also, the GI50 in test [7] is greater than 50 µM. Also, the TGI in test [8], in test [2], in test [3], in test [4], in [5] and in test [9] was greater than 50 µM throughout. The molecule further showed a TGI in test [7] greater than 50 µM.
On to `CN(C)c1ccc(/C=c2\sc3nnc(-c4ccco4)n3c2=O)cc1`, for which the TGI in [1], in test [8], in test [2], in test [3], in test [4] and in test [5] was greater than 100 µM throughout. Further, the TGI in test [9], in [6] and in test [7] was greater than 100 µM in each case.
For the molecule `O=C(O)Cc1cccc2c(=O)cc(-c3ccccc3)oc12`, the TGI in test [1] is 89.7 µM; in test [10], 150 µM; in test [8], 250 µM; in test [2], greater than 250 µM; in [3], greater than 250 µM; in test [11], 250 µM. The TGI in [4] is greater than 250 µM; in [5], 250 µM; in [12] it was greater than 250 µM; in test [7], greater than 250 µM.
For `CCCCCCCCCCCCSC(=S)c1c(C)[nH]n(-c2ccccc2)c1=O`, the TGI in test [8] is greater than 50 µM; in test [3], greater than 50 µM; in test [4], greater than 50 µM; in [5], 28.4 µM; in test [9], greater than 50 µM; in [6], greater than 50 µM.
Turning to `O=C1C2CCN(CC2)C1CN1CCOCC1` (stereo not drawn), the TGI in test [1] was found to be 14.5 µM; in test [8] it was 15.8 µM; in test [2] it was 25.3 µM; in [3], 56.1 µM; in test [4] it was 3.18 µM; in test [9], 3.88 µM. For the same molecule, the TGI was determined as 31 µM in [6] and 26.2 µM in [7].
For `CC(C)(C)C(=O)N1C(C(=O)O)Cc2ccccc2[C@@H]1Cc1ccccc1` (stereo partly drawn), the TGI in test [1], in test [8], in test [2], in test [3], in test [5] and in test [9] was greater than 100 µM in each case. Also, the TGI in [6] and in [7] was greater than 100 µM each time.
With `Cc1ccc(NCC2(/N=C/c3ccccc3)OC(CO)C(O)C2O)cc1` (stereo not drawn), the TGI in [1], in [2], in test [4], in [5] and in test [9] was greater than 100 µM each time.
Regarding `CN(C)CCNc1ccc2ncn3c4ccc(O)cc4c(=O)c1c23`, the TGI came out at 17.1 µM in test [1]; 49.6 µM in test [8]; 12.4 µM in test [2]; 21.4 µM in test [3]; 16.1 µM in [4]; 16.8 µM in test [5]. Moreover, the TGI in test [9] turned out to be 14.6 µM; in test [7], 13.1 µM.
Turning to `CC(Oc1ccc2c(-c3ccc(Cl)cc3)cc(=O)oc2c1)C(=O)O` (stereo not drawn), the TGI in test [1], in test [8], in test [3], in test [4], in [9] and in test [6] was greater than 100 µM each time.
With `Nc1nc(=O)n(C2CCC(CO)O2)cc1F` (stereo not drawn), the TGI in test [8], in test [2], in test [3], in test [4], in test [5] and in test [9] was greater than 100 µM throughout.
Turning to `COc1ccc(/C=C/c2cc(OC)c(OC(C)=O)c(OC)c2)cc1`, the TGI in test [1] is greater than 100 µM; in test [2] it was greater than 100 µM; in [3] it was 76.1 µM; in [4], greater than 100 µM; in test [5], 84.7 µM; in [9], greater than 100 µM. Also, the TGI in [6] and in test [7] was greater than 100 µM throughout.
As to `NC(=S)N1N=C2CCCCCC[C@@H]2[C@H]1c1ccccc1`, the TGI in test [1] is 76.5 µM; in test [2], greater than 100 µM; in test [3], greater than 100 µM; in test [4], greater than 100 µM; in test [5], greater than 100 µM; in [9], greater than 100 µM. In [7], the TGI is greater than 100 µM.
As for `O=[N+]([O-])c1nccn1CC(O)c1ccccc1` (stereo not drawn), the TGI in test [1], in [8], in [2], in test [5] and in test [9] was greater than 100 µM in each case.
Regarding `O=C(CC1(O)C(=O)Nc2c(Cl)cc(Cl)cc21)c1ccccc1` (stereo not drawn), the TGI in [1], in [2], in test [3], in test [5], in test [9] and in test [6] was greater than 100 µM each time. In [7], the TGI is greater than 100 µM.
Take `COC(=O)CCC(=O)Nc1ccc(Cl)cc1C`: the TGI in [1], in test [8], in test [2], in [3], in test [4] and in test [5] was greater than 100 µM each time. Besides, the TGI in test [9], in [6] and in test [7] was greater than 100 µM in each case.
On to `CC(=O)OC12C(C)=C(C)C(=O)N1c1ccccc1N2C(C)=O` (stereo not drawn), for which the TGI in test [1], in test [8], in [2], in test [3], in test [9] and in test [7] was greater than 100 µM each time.
Take `CSC(=NC(=O)c1ccccc1Cl)SCCSC(=NC(=O)c1ccccc1Cl)SC`: the TGI in test [1], in [2], in test [3], in [4], in [5] and in test [7] was greater than 100 µM throughout.
Regarding `Cc1cccc(-c2nnc3s/c(=C\c4ccc(N(C)C)cc4)c(=O)n23)c1`, the TGI in test [1], in test [8], in [2], in [3], in [4] and in test [9] was greater than 100 µM throughout. Besides, in [7], the TGI is greater than 100 µM.
`COc1ccc(CC(=O)NCCc2ccc(OC)c(OC)c2OC)cc1`: the TGI in test [1], in test [8], in test [3], in [4], in [5] and in test [9] was greater than 100 µM throughout. For the same molecule, the TGI in [6] and in test [7] was greater than 100 µM throughout.
Regarding `O=C(C[n+]1ccccc1)N/N=C(/CCC(=O)N(Cc1ccccc1)Cc1ccccc1)CC(=O)c1ccccc1`, the TGI in test [8], in test [2], in test [3], in test [4], in [5] and in [9] was greater than 100 µM each time. Also, the TGI in test [6] and in test [7] was greater than 100 µM throughout.
For the molecule `O=C1c2ccccc2-c2c3c(cc4ccnc1c24)OCO3`, the TGI in test [1] was 21.1 µM and 22.1 µM; in test [8], greater than 100 µM; in test [2] it was 29.4 µM and 19.2 µM; in [3], 66.1 µM and > 100 µM; in test [4], 24.7 µM and 27.3 µM; in [5] it was > 100 µM and 32.4 µM. Further, the TGI was 51.5 µM and > 100 µM in test [9]; 86.7 µM and 12.9 µM in test [7]. For the same molecule, the GI50 in test [3] was 14.9 µM and 6.03 µM; in test [5], 10.1 µM and 4.87 µM.
Consider `COc1ccc(C(=O)C2CCC(C(=O)O)C2)cc1` (stereo not drawn), for which the TGI in test [2], in test [3], in test [4], in [5], in test [9] and in test [7] was greater than 100 µM each time.
As for `CCOC(=O)C12CCCC1(O)N(NC(=O)OC)C(C)=C2C(=O)OC` (stereo not drawn), the TGI in test [1], in test [8], in [2], in test [3], in test [4] and in test [5] was greater than 100 µM in each case. For the same molecule, the TGI in test [9], in test [6] and in test [7] was greater than 100 µM throughout.
